ChEMBL document CHEMBL4308841, “Synthesis, in vitro antiproliferative activity, and kinase inhibitory effects of pyrazole-containing diarylureas and diarylamides” (Eur J Med Chem, 2018)

Columns and labels:
[1] = test system: NCI-H522; experiment: Growth inhibition of human NCI-H522 cells assessed as cell growth at 10 uM incubated for 48 hrs by sulforhodamine B assay relative to control; type: functional; details: NCI-H522, 48 h, read-out: Activity
[2] = test system: SR; experiment: Growth inhibition of human SR cells incubated for 48 hrs by sulforhodamine B assay; type: functional, cell-based
[3] = test system: HCT-116; experiment: Growth inhibition of human HCT116 cells incubated for 48 hrs by sulforhodamine B assay; type: functional, cell-based; details: HCT-116, 48 h
[4] = test system: UACC-62; experiment: Growth inhibition of human UACC62 cells incubated for 48 hrs by sulforhodamine B assay; type: functional, cell-based; details: UACC-62, 48 h
[5] = test system: OVCAR-3; experiment: Growth inhibition of human OVCAR3 cells incubated for 48 hrs by sulforhodamine B assay; type: functional, cell-based; details: OVCAR-3, 48 h
[6] = test system: 786-0; experiment: Growth inhibition of human 786-0 cells incubated for 48 hrs by sulforhodamine B assay; type: functional, cell-based; details: 786-0, 48 h
[7] = test system: RXF 393; experiment: Growth inhibition of human RXF393 cells incubated for 48 hrs by sulforhodamine B assay; type: functional, cell-based; details: RXF 393, 48 h
[8] = test system: MDA-MB-468; experiment: Growth inhibition of human MDA-MB-468 cells incubated for 48 hrs by sulforhodamine B assay; type: functional, cell-based; details: MDA-MB-468, 48 h
[9] = test system: NCI-H226; experiment: Growth inhibition of human NCI-H226 cells assessed as cell growth at 0.01 uM incubated for 48 hrs by sulforhodamine B assay relative to control; type: functional; details: NCI-H226, 48 h, read-out: Activity
[10] = test system: OVCAR-3; experiment: Growth inhibition of human OVCAR3 cells assessed as cell growth at 0.01 uM incubated for 48 hrs by sulforhodamine B assay relative to control; type: functional; details: OVCAR-3, 48 h, read-out: Activity
[11] = test system: NCI/ADR-RES; experiment: Growth inhibition of human NCI/ADR-RES cells assessed as cell growth at 0.01 uM incubated for 48 hrs by sulforhodamine B assay relative to control; type: functional; details: read-out: Activity
[12] = test system: T47D; experiment: Growth inhibition of human T47D cells assessed as cell growth at 0.01 uM incubated for 48 hrs by sulforhodamine B assay relative to control; type: functional; details: read-out: Activity
[13] = test system: HCT-116; experiment: Growth inhibition of human HCT116 cells assessed as cell growth at 0.1 uM incubated for 48 hrs by sulforhodamine B assay relative to control; type: functional; details: HCT-116, 48 h, read-out: Activity
[14] = test system: HCT-15; experiment: Growth inhibition of human HCT15 cells assessed as cell growth at 0.1 uM incubated for 48 hrs by sulforhodamine B assay relative to control; type: functional; details: HCT-15, 48 h, read-out: Activity
[15] = test system: M14; experiment: Growth inhibition of human M14 cells assessed as cell growth at 0.1 uM incubated for 48 hrs by sulforhodamine B assay relative to control; type: functional; details: M14, 48 h, read-out: Activity
[16] = test system: SK-MEL-28; experiment: Growth inhibition of human SK-MEL-28 cells assessed as cell growth at 0.1 uM incubated for 48 hrs by sulforhodamine B assay relative to control; type: functional; details: SK-MEL-28, 48 h, read-out: Activity
[17] = test system: SK-MEL-5; experiment: Growth inhibition of human SK-MEL-5 cells assessed as cell growth at 0.1 uM incubated for 48 hrs by sulforhodamine B assay relative to control; type: functional; details: SK-MEL-5, 48 h, read-out: Activity
[18] = test system: SR; experiment: Growth inhibition of human SR cells assessed as cell growth at 1 uM incubated for 48 hrs by sulforhodamine B assay relative to control; type: functional; details: read-out: Activity
[19] = test system: NCI-H23; experiment: Growth inhibition of human NCI-H23 cells assessed as cell growth at 1 uM incubated for 48 hrs by sulforhodamine B assay relative to control; type: functional; details: NCI-H23, 48 h, read-out: Activity
[20] = test system: Malme-3M; experiment: Growth inhibition of human MALME-3M cells assessed as cell growth at 1 uM incubated for 48 hrs by sulforhodamine B assay relative to control; type: functional; details: read-out: Activity
[21] = test system: SK-MEL-2; experiment: Growth inhibition of human SK-MEL-2 cells assessed as cell growth at 1 uM incubated for 48 hrs by sulforhodamine B assay relative to control; type: functional; details: SK-MEL-2, 48 h, read-out: Activity
[22] = test system: NCI/ADR-RES; experiment: Growth inhibition of human NCI/ADR-RES cells assessed as cell growth at 1 uM incubated for 48 hrs by sulforhodamine B assay relative to control; type: functional; details: read-out: Activity
[23] = test system: NCI-H23; experiment: Growth inhibition of human NCI-H23 cells assessed as cell growth at 100 uM incubated for 48 hrs by sulforhodamine B assay relative to control; type: functional; details: NCI-H23, 48 h, read-out: Activity
[24] = test system: SF-539; experiment: Growth inhibition of human SF539 cells assessed as cell growth at 100 uM incubated for 48 hrs by sulforhodamine B assay relative to control; type: functional; details: SF-539, 48 h, read-out: Activity
[25] = test system: Malme-3M; experiment: Growth inhibition of human MALME-3M cells assessed as cell growth at 100 uM incubated for 48 hrs by sulforhodamine B assay relative to control; type: functional; details: read-out: Activity
[26] = test system: SK-MEL-28; experiment: Growth inhibition of human SK-MEL-28 cells assessed as cell growth at 100 uM incubated for 48 hrs by sulforhodamine B assay relative to control; type: functional; details: SK-MEL-28, 48 h, read-out: Activity
[27] = test system: SK-MEL-5; experiment: Growth inhibition of human SK-MEL-5 cells assessed as cell growth at 100 uM incubated for 48 hrs by sulforhodamine B assay relative to control; type: functional; details: SK-MEL-5, 48 h, read-out: Activity
[28] = test system: UACC-62; experiment: Growth inhibition of human UACC62 cells assessed as cell growth at 100 uM incubated for 48 hrs by sulforhodamine B assay relative to control; type: functional; details: UACC-62, 48 h, read-out: Activity
[29] = test system: OVCAR-5; experiment: Growth inhibition of human OVCAR5 cells assessed as cell growth at 100 uM incubated for 48 hrs by sulforhodamine B assay relative to control; type: functional; details: OVCAR-5, 48 h, read-out: Activity
[30] = read-out: LC50 (the source's name)
[31] = read-out: pLC50 (the source's name) (converted)

## COc1cc(Cl)cc(-c2nn(-c3cccc(NC(=O)c4ccc(Cl)c(Cl)c4)c3)cc2-c2ccncc2)c1
[1]
  growth at 10 µM: 53.7%

## O=C(Nc1cccc(-n2cc(-c3ccncc3)c(-c3cc(O)cc(Cl)c3)n2)c1)Nc1ccc(Cl)c(Cl)c1
[2]; read-out: GI50
  GI50: 1.3 µM
[2]; [30]
  CC50: > 100 µM
[2]; read-out: TGI
  TGI: 42.4 µM
[2]; read-out: pGI50 (converted)
  GI50: 1.32 µM
[2]; [31]
  CC50: > 100 µM
[2]; read-out: pTGI (converted)
  TGI: 4.27 µM
[3]
  IC50: 1.74 µM
[3]; read-out: GI50
  GI50: 1.74 µM
[3]; [30]
  CC50: 9.59 µM
[3]; read-out: TGI
  TGI: 41 µM
[3]; read-out: pGI50 (converted)
  GI50: 1.74 µM
[3]; [31]
  CC50: 9.77 µM
[3]; read-out: pTGI (converted)
  TGI: 4.07 µM
[4]
  IC50: 1.69 µM
[4]; read-out: GI50
  GI50: 1.59 µM
[4]; [30]
  CC50: 5.38 µM
[4]; read-out: TGI
  TGI: 37.6 µM
[4]; read-out: pGI50 (converted)
  GI50: 1.7 µM
[4]; [31]
  CC50: 8.32 µM
[4]; read-out: pTGI (converted)
  TGI: 3.72 µM
[5]
  IC50: 1.96 µM
[5]; read-out: GI50
  GI50: 1.96 µM
[5]; [30]
  CC50: > 100 µM
[5]; read-out: TGI
  TGI: 50.5 µM
[5]; read-out: pGI50 (converted)
  GI50: 1.95 µM
[5]; [31]
  CC50: > 100 µM
[5]; read-out: pTGI (converted)
  TGI: 5.01 µM
[6]; read-out: GI50
  GI50: 1.48 µM
[6]; [30]
  CC50: 9.31 µM
[6]; read-out: TGI
  TGI: 37.1 µM
[6]; read-out: pGI50 (converted)
  GI50: 1.48 µM
[6]; [31]
  CC50: 9.33 µM
[6]; read-out: pTGI (converted)
  TGI: 3.72 µM
[7]
  LC50: 8.13 µM
[7]; read-out: GI50
  GI50: 0.556 µM
[7]; read-out: TGI
  TGI: 24.6 µM
[7]; read-out: pGI50 (converted)
  GI50: 0.55 µM
[7]; read-out: pTGI (converted)
  TGI: 2.45 µM
[8]
  IC50: 1.71 µM
[8]; read-out: GI50
  GI50: 1.7 µM
[8]; [30]
  CC50: > 100 µM
[8]; read-out: TGI
  TGI: 70.9 µM
[8]; read-out: pGI50 (converted)
  GI50: 1.7 µM
[8]; [31]
  CC50: > 100 µM
[8]; read-out: pTGI (converted)
  TGI: 7.08 µM
[9]
  growth at 0.01 µM: 94%
[10]
  growth at 0.01 µM: 103%
[11]
  growth at 0.01 µM: 109%
[12]
  growth at 0.01 µM: 106%
[13]
  growth at 0.1 µM: 102%
[14]
  growth at 0.1 µM: 95%
[15]
  growth at 0.1 µM: 93%
[16]
  growth at 0.1 µM: 97%
[17]
  growth at 0.1 µM: 92%
[18]
  growth at 1 µM: 62%
[19]
  growth at 1 µM: 96%
[20]
  growth at 1 µM: 76%
[21]
  growth at 1 µM: 56%
[22]
  growth at 1 µM: 90%
[23]
  growth at 100 µM: -35%
[24]
  growth at 100 µM: -52%
[25]
  growth at 100 µM: -45%
[26]
  growth at 100 µM: -52%
[27]
  growth at 100 µM: -78%
[28]
  growth at 100 µM: -74%
[29]
  growth at 100 µM: -80%

## O=C(Nc1cccc(-n2cc(-c3ccncc3)c(-c3cc(O)cc(Cl)c3)n2)c1)c1cc(C(F)(F)F)cc(C(F)(F)F)c1
[1]
  growth at 10 µM: 17.8%
[2]; read-out: GI50
  GI50: 1.51 µM
[2]; [30]
  CC50: > 100 µM
[2]; read-out: TGI
  TGI: 50.1 µM
[2]; read-out: pGI50 (converted)
  GI50: 1.62 µM
[2]; [31]
  CC50: > 100 µM
[2]; read-out: pTGI (converted)
  TGI: 5.01 µM
[3]
  IC50: 3.23 µM
[3]; read-out: GI50
  GI50: 3.23 µM
[3]; [30]
  CC50: > 100 µM
[3]; read-out: TGI
  TGI: > 100 µM
[3]; read-out: pGI50 (converted)
  GI50: 3.24 µM
[3]; [31]
  CC50: > 100 µM
[3]; read-out: pTGI (converted)
  TGI: > 100 µM
[4]
  IC50: 3.79 µM
[4]; read-out: GI50
  GI50: 3.79 µM
[4]; [30]
  CC50: > 100 µM
[4]; read-out: TGI
  TGI: 22.4 µM
[4]; read-out: pGI50 (converted)
  GI50: 3.8 µM
[4]; [31]
  CC50: > 100 µM
[4]; read-out: pTGI (converted)
  TGI: 28.2 µM
[5]
  IC50: 3.28 µM
[5]; read-out: GI50
  GI50: 3.28 µM
[5]; [30]
  CC50: > 100 µM
[5]; read-out: TGI
  TGI: 25.7 µM
[5]; read-out: pGI50 (converted)
  GI50: 3.31 µM
[5]; [31]
  CC50: > 100 µM
[5]; read-out: pTGI (converted)
  TGI: 10.2 µM
[6]; read-out: GI50
  GI50: 3.12 µM
[6]; [30]
  CC50: > 100 µM
[6]; read-out: TGI
  TGI: 21.1 µM
[6]; read-out: pGI50 (converted)
  GI50: 3.09 µM
[6]; [31]
  CC50: > 100 µM
[6]; read-out: pTGI (converted)
  TGI: 20.9 µM
[7]
  LC50: 24.5 µM
[7]; read-out: GI50
  GI50: 1.59 µM
[7]; read-out: TGI
  TGI: 43.6 µM
[7]; read-out: pGI50 (converted)
  GI50: 1.7 µM
[7]; read-out: pTGI (converted)
  TGI: 4.37 µM
[8]
  IC50: 3.1 µM
[8]; read-out: GI50
  GI50: 3.1 µM
[8]; [30]
  CC50: > 100 µM
[8]; read-out: TGI
  TGI: > 100 µM
[8]; read-out: pGI50 (converted)
  GI50: 3.09 µM
[8]; [31]
  CC50: > 100 µM
[8]; read-out: pTGI (converted)
  TGI: > 100 µM
[9]
  growth at 0.01 µM: 95%
[10]
  growth at 0.01 µM: 102%
[11]
  growth at 0.01 µM: 101%
[12]
  growth at 0.01 µM: 102%
[13]
  growth at 0.1 µM: 100%
[14]
  growth at 0.1 µM: 90%
[15]
  growth at 0.1 µM: 93%
[16]
  growth at 0.1 µM: 103%
[17]
  growth at 0.1 µM: 95%
[18]
  growth at 1 µM: 71%
[19]
  growth at 1 µM: 98%
[20]
  growth at 1 µM: 59%
[21]
  growth at 1 µM: 106%
[22]
  growth at 1 µM: 94%
[23]
  growth at 100 µM: -10%
[24]
  growth at 100 µM: -13%
[26]
  growth at 100 µM: -2%
[27]
  growth at 100 µM: -45%
[28]
  growth at 100 µM: -35%
[29]
  growth at 100 µM: -32%
